Experimental data as given in patent US20230242947A1, “GENETICALLY ENGINEERED RHODOPSEUDOMONAS PALUSTRIS” (priority 2021, published 2023).
Where two headings read alike, the source gives them in different places.

What was measured:
[1] = system: phiC31 integrase (Streptomyces phage phiC31?); assay: cell_activity
[2] = system: WT TIE-1 with an empty vector (pRhokS-2); type: cell-based, Rhodopseudomonas palustris TIE-1; settings: for Doubling time: WT with pAB423; for effect on TIE-1 growth of the amount produced in the study: amounts produced by the engineered strains (n-butanol up to 4.98 mg/L; acetone up to about 290 mg/L)
Method: Toxicity Study. WT TIE-1 with an empty vector (pRhokS-2) was used to test the tolerance of TIE-1 for acetone and n-butanol. To test the tolerance, 0, 0.25, 0.5, 1, or 2% n-butanol (v/v), or 0, 0.1, 0.25, 0.5, 1, or 2% acetone (v/v), was added to FW media with acetate (10 mM). Growth was monitored by recording OD660 overtime.

phiC31 attB site (in TIE-1 genome at glmUSX-recG locus)
activity ([1]; attB x attP integration of mcherry in R. palustris TIE-1, editing efficiency 100% for genome-based system and constitutive plasmid system, about 80% for …): 100%

CCCCO [n-butanol]
Doubling time ([2]; n-butanol 2025 mg/L in media): 20.091 h
Doubling time ([2]; n-butanol 4050 mg/L in media): No growth
Doubling time ([2]; n-butanol 8100 mg/L in media): No growth
Doubling time ([2]; n-butanol 16200 mg/L in media): No growth
effect on TIE-1 growth of the amount produced in the study [2]: does not limit the growth of TIE-1
lowest inhibitory concentration of n-butanol for TIE-1 ([2]; toxicity assay, FW media with acetate (10 mM)): 4050 mg/L

phiC31 attP site (on suicide plasmid pWB081/pWB088)
activity ([1]; attP donor plasmid partner of attB, same integration assay, about 80% with inducible plasmid system): 100%

CC(C)=O [acetone]
Doubling time ([2]; acetone 1960 mg/L in media): 6.74 h
Doubling time ([2]; acetone 3920 mg/L in media): 5.82 h
Doubling time ([2]; acetone 7840 mg/L in media): 5.56 h
Doubling time ([2]; acetone 15680 mg/L in media): 4.88 h
effect on TIE-1 growth of the amount produced in the study [2]: does not limit TIE-1's growth
